Experimental data taken from patent US11999727B2 (Tango Therapeutics, Inc., priority 2020, dated 2024).

Columns and labels:
PRMT5 [1] = target: T1, PRMT5 (Homo sapiens, UniProt O14744); experiment: PRMT5 biochemical IC50 assay with MTA as cofactor; details: PRMT5, MTA as cofactor; read-out: MTA IC50
T1 construct: purchased Viva (custom protein)

[2] = system: HAP1 MTAP-deleted cell line; experiment: SDMA in-cell western assay, HAP1 MTAP-deleted; assay type: cell-based; details: for IC50: Homo sapiens, HAP1, SDMA in-cell western, HAP1 MTAP-deleted, read-out: HAP 1 MTAP deleted IC50; for MTAP intact/deleted ratio: IC50 ratio HAP1 MTAP-intact / HAP1 MTAP-deleted, SDMA in-cell western
How it was run: (§1)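 MTAP-null vs endogenous-MTAP HAP1 isogenic cells; in-cell western SDMA readout; IC50 per line.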

[3] = system: HAP1 MTAP-deleted cell line; experiment: Viability assay, MTAP-deleted cell line; assay type: cell-based; details: Homo sapiens, HAP1, viability IC50, MTAP-deleted cell line; read-out: HAP1 MTAP deleted viability
From the text: Table 1 additionally indicates IC50 values in a viability assay for the MTAP-deleted cell line (column 10), indicating the effect of treatment with compound on cell survival.

[4] = system: HAP1 MTAP-intact cell line; experiment: SDMA in-cell western assay, HAP1 MTAP-intact; assay type: cell-based; details: Homo sapiens, HAP1, SDMA in-cell western, HAP1 MTAP-intact; read-out: MTAP HAP1 intact IC50
How it was run: as §1

PRMT5 [5] = target: T1, PRMT5; experiment: PRMT5 biochemical IC50 assay with SAM as cofactor; details: PRMT5, SAM as cofactor; read-out: SAM IC50
PRMT5 [6] = target: T1, PRMT5; experiment: PRMT5 biochemical IC50 assay with no cofactor; details: PRMT5, no cofactor; read-out: No Cofactor/rel IC50
From the text: Table 1 indicates IC50 values (μM) against PRMT5 for exemplary compounds in the presence of SAM as cofactor, with no cofactor, and with MTA as cofactor, respectively (columns 4-6). […] Ki values can be calculated from the IC50 values as described in the Examples section. As detailed in the Examples section, for the assay performed in the presence of SAM, IC50=Ki×1.5 (Ki=IC50/1.5).

T1 sequence (O14744 whole entry): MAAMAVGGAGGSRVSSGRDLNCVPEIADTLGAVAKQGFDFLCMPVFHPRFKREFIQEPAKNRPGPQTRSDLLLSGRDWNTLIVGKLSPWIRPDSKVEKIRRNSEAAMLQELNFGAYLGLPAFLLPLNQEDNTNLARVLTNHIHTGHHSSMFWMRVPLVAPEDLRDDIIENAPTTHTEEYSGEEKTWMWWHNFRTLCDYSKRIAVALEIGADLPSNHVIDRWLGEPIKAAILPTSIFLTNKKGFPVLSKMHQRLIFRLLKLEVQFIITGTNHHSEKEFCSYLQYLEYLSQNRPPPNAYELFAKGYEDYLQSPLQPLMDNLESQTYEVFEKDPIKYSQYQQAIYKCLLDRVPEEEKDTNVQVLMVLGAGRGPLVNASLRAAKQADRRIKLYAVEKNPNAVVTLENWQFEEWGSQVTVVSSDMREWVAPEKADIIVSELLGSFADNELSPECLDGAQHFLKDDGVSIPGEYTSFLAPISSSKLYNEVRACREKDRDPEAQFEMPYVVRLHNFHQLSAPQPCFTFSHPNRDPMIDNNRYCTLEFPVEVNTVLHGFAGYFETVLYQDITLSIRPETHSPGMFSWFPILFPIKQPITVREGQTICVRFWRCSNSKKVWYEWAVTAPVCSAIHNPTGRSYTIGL
T1 sequence (Q9BQA1 whole entry partner): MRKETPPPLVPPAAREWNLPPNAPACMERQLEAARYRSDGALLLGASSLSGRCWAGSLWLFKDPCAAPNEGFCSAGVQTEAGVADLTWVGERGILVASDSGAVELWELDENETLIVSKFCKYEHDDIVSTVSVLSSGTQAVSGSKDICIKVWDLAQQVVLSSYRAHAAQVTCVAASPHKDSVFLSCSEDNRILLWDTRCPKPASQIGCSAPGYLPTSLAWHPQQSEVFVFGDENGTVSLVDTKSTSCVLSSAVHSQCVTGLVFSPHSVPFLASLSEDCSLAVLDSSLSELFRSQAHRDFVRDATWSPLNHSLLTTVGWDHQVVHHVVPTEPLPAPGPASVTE

| SMILES | IC50 (PRMT5 [1]) [nM] | IC50 [2] [nM] | IC50 [4] [nM] | IC50 (PRMT5 [5]) [nM] | IC50 (PRMT5 [6]) [nM] | MTAP intact/deleted ratio [2] | IC50 [3] [nM] |
| --- | --- | --- | --- | --- | --- | --- | --- |
| C[C@@H]1CC[C@@H](c2ccc(-c3cc[nH]n3)cc2)N(C(=O)C(=O)Nc2cncc(C(N)=O)c2)C1 (single isomer, unassigned) [Compound 627] | > 500 | 100 to 1000 | > 1000 | > 500 | > 500 | A (an IC50 ratio greater than or equal to 10 fold) | > 10000 |
| Cc1cc(NC(=O)C(=O)N2C[C@@H](C)CC[C@@H]2c2ccc(-c3cn[nH]c3)cc2)cnc1N (single isomer, unassigned) [Compound 629] | > 500 | > 1000 | > 1000 | > 500 | > 500 | B (an IC50 ratio greater than or equal to 3 fold but lower than 10 fold) | > 10000 |
| Cc1cc(NC(=O)C(=O)N2C[C@H](C)CC[C@H]2c2ccc(NS(C)(=O)=O)cc2)cnc1C (single isomer, unassigned) [Compound 630] | > 500 | 100 to 1000 | > 1000 | > 500 | > 500 | A (an IC50 ratio greater than or equal to 10 fold) | > 10000 |
| Cc1cc(NC(=O)C(=O)N2C[C@H](C)CC[C@H]2c2ccc3[nH]ncc3c2)cnc1C (single isomer, unassigned) [Compound 631] | > 500 | > 1000 | > 1000 | > 500 | > 500 | C (an IC50 ratio of less than 3 fold) | > 10000 |
| C[C@H]1CC[C@H](c2ccc3[nH]ncc3c2F)N(C(=O)C(=O)Nc2cncc(C(N)=O)c2)C1 (single isomer, unassigned) [Compound 637] | > 500 | 100 to 1000 | > 1000 | > 500 | > 500 | A (an IC50 ratio greater than or equal to 10 fold) | > 10000 |

Further lines, with some results ahead:

| IC50 (PRMT5 [1]) [nM] | IC50 [2] [nM] | IC50 [4] [nM] | IC50 (PRMT5 [5]) [nM] | IC50 (PRMT5 [6]) [nM] | SMILES | MTAP intact/deleted ratio [2] | IC50 [3] [nM] |
| --- | --- | --- | --- | --- | --- | --- | --- |
| 50 to 500 | < 100 | 100 to 1000 | 50 to 500 | < 50 | Cc1cc(NC(=O)C(=O)N2C[C@H](C)CC[C@H]2c2ccc(-c3cn[nH]c3)cc2)cnc1N (single isomer, unassigned) [Compound 628] | A (an IC50 ratio greater than or equal to 10 fold) | < 1000 |
| < 50 | < 100 | 100 to 1000 | < 50 | < 50 | Cc1cc(NC(=O)C(=O)N2C[C@@H](C)CC[C@@H]2c2ccc3sccc3c2)cnc1N (single isomer, unassigned) [Compound 634] | A (an IC50 ratio greater than or equal to 10 fold) | < 1000 |
| < 50 | 100 to 1000 | > 1000 | < 50 | 50 to 500 | C[C@H]1CC[C@H](c2cc(Cl)cc(C(F)(F)F)c2)N(C(=O)C(=O)Nc2cncc(C(N)=O)c2)C1 (single isomer, unassigned) [Compound 646] | A (an IC50 ratio greater than or equal to 10 fold) | 1000 to 10000 |
| < 50 | 100 to 1000 | > 1000 | 50 to 500 | 50 to 500 | Cc1ccc([C@@H]2CC[C@@H](C)CN2C(=O)C(=O)Nc2cncc(C(N)=O)c2)cn1 (single isomer, unassigned) [Compound 654] | A (an IC50 ratio greater than or equal to 10 fold) | 1000 to 10000 |
| < 50 | 100 to 1000 | > 1000 | < 50 | 50 to 500 | C[C@H]1CC[C@H](c2ccc(C(F)(F)F)c(Cl)c2)N(C(=O)C(=O)Nc2cncc(C(N)=O)c2)C1 (single isomer, unassigned) [Compound 655] | A (an IC50 ratio greater than or equal to 10 fold) | 1000 to 10000 |
